Molecular target: T1, BChE from equine serum (Equus caballus, UniProt P81908)
T1 construct: BChE (from equine serum); purchased Sigma, St. Louis, MO, USA; host or cells: equine serum
Test: In vitro BChE inhibition, modified Ellman's method
Assay type: biochemical
Conditions: not given

T1 sequence (P81908 whole entry): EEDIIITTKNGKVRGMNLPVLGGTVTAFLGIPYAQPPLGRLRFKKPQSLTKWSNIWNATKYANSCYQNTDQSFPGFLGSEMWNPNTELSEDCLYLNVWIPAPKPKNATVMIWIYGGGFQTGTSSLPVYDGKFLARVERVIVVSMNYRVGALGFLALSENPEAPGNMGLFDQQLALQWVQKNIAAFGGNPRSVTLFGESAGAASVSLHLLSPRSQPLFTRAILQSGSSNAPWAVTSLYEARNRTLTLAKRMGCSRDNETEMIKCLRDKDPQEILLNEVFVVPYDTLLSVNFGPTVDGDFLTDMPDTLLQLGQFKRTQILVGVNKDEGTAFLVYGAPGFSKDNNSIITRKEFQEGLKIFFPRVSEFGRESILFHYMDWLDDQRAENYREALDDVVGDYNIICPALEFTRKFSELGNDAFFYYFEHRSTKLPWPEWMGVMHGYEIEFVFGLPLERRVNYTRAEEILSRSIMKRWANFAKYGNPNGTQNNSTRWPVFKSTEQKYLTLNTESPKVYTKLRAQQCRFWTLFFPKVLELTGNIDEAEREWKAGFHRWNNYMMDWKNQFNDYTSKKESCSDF

Row | SMILES | IC50
1 | CC(C(=O)c1ccc(Br)c2ccccc12)N(C)C(=O)Oc1ccccc1 (stereo not drawn) [Compound 38, Phenyl (1-(4-bromonaphthalen-1-yl)-1-oxopropan-2-yl)(methyl)carbamate] | 13 ± 0.28 µM
2 | COC(=O)N(C)C(C)C(=O)c1ccc2c(c1)OCO2 (stereo not drawn) [Compound 10, Methyl (1-(benzo[d][1,3]dioxol-5-yl)-1-oxopropan-2-yl)(methyl)carbamate] | 194.9 ± 1.93 µM
3 | CC(C(=O)c1cccc(Cl)c1)N(C)C(=O)OCc1ccccc1 (stereo not drawn) [Compound 28, Benzyl (1-(3-chlorophenyl)-1-oxopropan-2-yl)(methyl)carbamate] | 5.51 ± 0.2 µM
4 | CC(C(=O)c1ccc(Br)cc1)N(C)C(=O)OCc1ccccc1 (stereo not drawn) [Compound 32, Benzyl (1-(4-bromophenyl)-1-oxopropan-2-yl)(methyl)carbamate] | 11.3 ± 0.15 µM
5 | CCC(C(=O)c1ccccc1)N(CC)C(=O)OC (stereo not drawn) [Compound 3, Methyl ethyl(1-oxo-1-phenylbutan-2-yl)carbamate] | 363 ± 7.41 µM
6 | CCN(C(=O)Oc1ccccc1)C(C)C(=O)c1ccccc1 (stereo not drawn) [Compound 11, Phenyl ethyl(1-oxo-1-phenylpropan-2-yl)carbamate] | 27.6 ± 0.55 µM
7 | CCC(C(=O)c1ccccc1)N(C)C(=O)OC (stereo not drawn) [Compound 2, Methyl methyl(1-oxo-1-phenylbutan-2-yl)carbamate] | 441 ± 7.54 µM
8 | CC(C(=O)c1cccc2ccccc12)N(C)C(=O)OCc1ccccc1 (stereo not drawn) [Compound 39, Benzyl methyl(1-(naphthalen-1-yl)-1-oxopropan-2-yl)carbamate] | 18.94 ± 0.18 µM
9 | COC(=O)N(C)C(C)C(=O)c1cccc(C)c1 (stereo not drawn) [Compound 4, Methyl methyl(1-oxo-1-(m-tolyl)propan-2-yl)carbamate] | 116 ± 2.16 µM
10 | Cc1ccc(C(=O)C(C)N(C)C(=O)OCc2ccccc2)cc1 (stereo not drawn) [Compound 30, Benzyl methyl(1-oxo-1-(p-tolyl)propan-2-yl)carbamate] | 26.4 ± 0.4 µM
11 | CCC(C(=O)c1ccccc1)N(C)C(=O)Oc1ccccc1 (stereo not drawn) [Compound 12, Phenyl methyl(1-oxo-1-phenylbutan-2-yl)carbamate] | 53 ± 1.06 µM
12 | COC(=O)N(C)C(C)C(=O)c1ccc(OC)cc1 (stereo not drawn) [Compound 6, Methyl (1-(4-methoxyphenyl)-1-oxopropan-2-yl)(methyl)carbamate] | 186.6 ± 1.55 µM
13 | CCC(C(=O)c1ccccc1)N(C)C(=O)OCc1ccccc1 (stereo not drawn) [Compound 24, Benzyl methyl(1-oxo-1-phenylbutan-2-yl)carbamate] | 21.4 ± 0.26 µM
14 | CC(C(=O)c1ccc(Cl)cc1)N(C)C(=O)OCc1ccccc1 (stereo not drawn) [Compound 31, Benzyl (1-(4-chlroophenyl)-1-oxopropan-2-yl)(methyl)carbamate] | 7.02 ± 0.15 µM
15 | CC(C(=O)c1ccc(Cl)cc1)N(C)C(=O)Oc1ccccc1 (stereo not drawn) [Compound 19, Phenyl (1-(4-chlorophenyl)-1-oxopropan-2-yl)(methyl)carbamate] | 38.96 ± 0.28 µM
16 | CC(C(=O)c1cccc(Cl)c1)N(C)C(=O)Oc1ccccc1 (stereo not drawn) [Compound 16, Phenyl (1-(3-chlorophenyl)-1-oxopropan-2-yl)(methyl)carbamate] | 14.81 ± 0.01 µM
17 | CCN(C(=O)OCc1ccccc1)C(C)C(=O)c1ccccc1 (stereo not drawn) [Compound 23, Benzyl ethyl(1-oxo-1-phenylpropan-2-yl)carbamate] | 11.37 ± 0.05 µM
18 | CCCC(C(=O)c1ccccc1)N(C)C(=O)OCc1ccccc1 (stereo not drawn) [Compound 26, Benzyl methyl(1-oxo-1-phenylpentan-2-yl)carbamate] | 16.3 ± 0.17 µM
19 | CC(C(=O)c1ccc(Br)c2ccccc12)N(C)C(=O)OCc1ccccc1 (stereo not drawn) [Compound 41, Benzyl (1-(4-bromonaphthalen-1-yl)-1-oxopropan-2-yl)(methyl)carbamate] | 236 ± 16.3 µM

Same assay, conditions: higher value = higher selectivity to BChE

Row | SMILES | SI (index selectivity) = IC50 (AChE)/IC50 (BChE)
20 | CC(C(=O)c1ccc(Br)c2ccccc12)N(C)C(=O)Oc1ccccc1 (stereo not drawn) [Compound 38, Phenyl (1-(4-bromonaphthalen-1-yl)-1-oxopropan-2-yl)(methyl)carbamate] | 4.76
21 | COC(=O)N(C)C(C)C(=O)c1ccc2c(c1)OCO2 (stereo not drawn) [Compound 10, Methyl (1-(benzo[d][1,3]dioxol-5-yl)-1-oxopropan-2-yl)(methyl)carbamate] | 1.16
22 | CC(C(=O)c1cccc(Cl)c1)N(C)C(=O)OCc1ccccc1 (stereo not drawn) [Compound 28, Benzyl (1-(3-chlorophenyl)-1-oxopropan-2-yl)(methyl)carbamate] | 15.31
23 | CC(C(=O)c1ccc(Br)cc1)N(C)C(=O)OCc1ccccc1 (stereo not drawn) [Compound 32, Benzyl (1-(4-bromophenyl)-1-oxopropan-2-yl)(methyl)carbamate] | 2.84
24 | CCC(C(=O)c1ccccc1)N(CC)C(=O)OC (stereo not drawn) [Compound 3, Methyl ethyl(1-oxo-1-phenylbutan-2-yl)carbamate] | 0.75
25 | CCN(C(=O)Oc1ccccc1)C(C)C(=O)c1ccccc1 (stereo not drawn) [Compound 11, Phenyl ethyl(1-oxo-1-phenylpropan-2-yl)carbamate] | 6.03
26 | CCC(C(=O)c1ccccc1)N(C)C(=O)OC (stereo not drawn) [Compound 2, Methyl methyl(1-oxo-1-phenylbutan-2-yl)carbamate] | 0.75
27 | CC(C(=O)c1cccc2ccccc12)N(C)C(=O)OCc1ccccc1 (stereo not drawn) [Compound 39, Benzyl methyl(1-(naphthalen-1-yl)-1-oxopropan-2-yl)carbamate] | 5.55
28 | COC(=O)N(C)C(C)C(=O)c1cccc(C)c1 (stereo not drawn) [Compound 4, Methyl methyl(1-oxo-1-(m-tolyl)propan-2-yl)carbamate] | 1.16
29 | Cc1ccc(C(=O)C(C)N(C)C(=O)OCc2ccccc2)cc1 (stereo not drawn) [Compound 30, Benzyl methyl(1-oxo-1-(p-tolyl)propan-2-yl)carbamate] | 1.52
30 | CCC(C(=O)c1ccccc1)N(C)C(=O)Oc1ccccc1 (stereo not drawn) [Compound 12, Phenyl methyl(1-oxo-1-phenylbutan-2-yl)carbamate] | 3.38
31 | COC(=O)N(C)C(C)C(=O)c1ccc(OC)cc1 (stereo not drawn) [Compound 6, Methyl (1-(4-methoxyphenyl)-1-oxopropan-2-yl)(methyl)carbamate] | 0.79
32 | CCC(C(=O)c1ccccc1)N(C)C(=O)OCc1ccccc1 (stereo not drawn) [Compound 24, Benzyl methyl(1-oxo-1-phenylbutan-2-yl)carbamate] | 4.87
33 | CC(C(=O)c1ccc(Cl)cc1)N(C)C(=O)OCc1ccccc1 (stereo not drawn) [Compound 31, Benzyl (1-(4-chlroophenyl)-1-oxopropan-2-yl)(methyl)carbamate] | 7.53
34 | CC(C(=O)c1ccc(Cl)cc1)N(C)C(=O)Oc1ccccc1 (stereo not drawn) [Compound 19, Phenyl (1-(4-chlorophenyl)-1-oxopropan-2-yl)(methyl)carbamate] | 1.14
35 | CC(C(=O)c1cccc(Cl)c1)N(C)C(=O)Oc1ccccc1 (stereo not drawn) [Compound 16, Phenyl (1-(3-chlorophenyl)-1-oxopropan-2-yl)(methyl)carbamate] | 7.35
36 | CCN(C(=O)OCc1ccccc1)C(C)C(=O)c1ccccc1 (stereo not drawn) [Compound 23, Benzyl ethyl(1-oxo-1-phenylpropan-2-yl)carbamate] | 13.93
37 | CCCC(C(=O)c1ccccc1)N(C)C(=O)OCc1ccccc1 (stereo not drawn) [Compound 26, Benzyl methyl(1-oxo-1-phenylpentan-2-yl)carbamate] | 8.26
38 | CC(C(=O)c1ccc(Br)c2ccccc12)N(C)C(=O)OCc1ccccc1 (stereo not drawn) [Compound 41, Benzyl (1-(4-bromonaphthalen-1-yl)-1-oxopropan-2-yl)(methyl)carbamate] | 0.54

Molecular target: T2, AChE from electric eel (Electrophorus electricus, UniProt O42275)
T2 construct: purchased Sigma, St. Louis, MO, USA
Test: biochemical
Conditions: mean ± SD, n = three experiments; 25 °C, PBS pH 7.4, substrate ATCh 40 μM

T2 sequence (O42275 24-633): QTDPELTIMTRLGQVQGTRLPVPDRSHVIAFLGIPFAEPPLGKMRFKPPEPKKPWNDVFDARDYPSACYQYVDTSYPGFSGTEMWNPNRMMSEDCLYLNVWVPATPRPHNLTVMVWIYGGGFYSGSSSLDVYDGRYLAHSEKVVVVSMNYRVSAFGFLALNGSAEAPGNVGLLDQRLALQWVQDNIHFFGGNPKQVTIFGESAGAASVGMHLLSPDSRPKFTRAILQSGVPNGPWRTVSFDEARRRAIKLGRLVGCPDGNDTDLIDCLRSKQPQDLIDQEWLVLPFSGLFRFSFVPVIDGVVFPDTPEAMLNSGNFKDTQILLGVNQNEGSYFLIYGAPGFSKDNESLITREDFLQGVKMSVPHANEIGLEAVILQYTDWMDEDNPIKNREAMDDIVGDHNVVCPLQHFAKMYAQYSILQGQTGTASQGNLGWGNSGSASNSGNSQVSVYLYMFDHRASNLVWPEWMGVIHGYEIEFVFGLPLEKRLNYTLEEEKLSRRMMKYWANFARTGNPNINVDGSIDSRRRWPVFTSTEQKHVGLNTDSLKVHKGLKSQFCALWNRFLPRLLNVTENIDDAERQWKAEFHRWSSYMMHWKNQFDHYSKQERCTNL

Row | SMILES | IC50
39 | CC(C(=O)c1ccc(Br)c2ccccc12)N(C)C(=O)Oc1ccccc1 (stereo not drawn) [Compound 38, Phenyl (1-(4-bromonaphthalen-1-yl)-1-oxopropan-2-yl)(methyl)carbamate] | 61.7 ± 1.42 µM
40 | COC(=O)N(C)C(C)C(=O)c1ccc2c(c1)OCO2 (stereo not drawn) [Compound 10, Methyl (1-(benzo[d][1,3]dioxol-5-yl)-1-oxopropan-2-yl)(methyl)carbamate] | 225 ± 2.72 µM
41 | CC(C(=O)c1cccc(Cl)c1)N(C)C(=O)OCc1ccccc1 (stereo not drawn) [Compound 28, Benzyl (1-(3-chlorophenyl)-1-oxopropan-2-yl)(methyl)carbamate] | 84.4 ± 2.27 µM
42 | CC(C(=O)c1ccc(Br)cc1)N(C)C(=O)OCc1ccccc1 (stereo not drawn) [Compound 32, Benzyl (1-(4-bromophenyl)-1-oxopropan-2-yl)(methyl)carbamate] | 32 ± 0.54 µM
43 | CCC(C(=O)c1ccccc1)N(CC)C(=O)OC (stereo not drawn) [Compound 3, Methyl ethyl(1-oxo-1-phenylbutan-2-yl)carbamate] | 273.7 ± 2.16 µM
44 | CCN(C(=O)Oc1ccccc1)C(C)C(=O)c1ccccc1 (stereo not drawn) [Compound 11, Phenyl ethyl(1-oxo-1-phenylpropan-2-yl)carbamate] | 167 ± 1.75 µM
45 | CCC(C(=O)c1ccccc1)N(C)C(=O)OC (stereo not drawn) [Compound 2, Methyl methyl(1-oxo-1-phenylbutan-2-yl)carbamate] | 329 ± 9.72 µM
46 | CC(C(=O)c1cccc2ccccc12)N(C)C(=O)OCc1ccccc1 (stereo not drawn) [Compound 39, Benzyl methyl(1-(naphthalen-1-yl)-1-oxopropan-2-yl)carbamate] | 105.2 ± 0.99 µM
47 | COC(=O)N(C)C(C)C(=O)c1cccc(C)c1 (stereo not drawn) [Compound 4, Methyl methyl(1-oxo-1-(m-tolyl)propan-2-yl)carbamate] | 134 ± 2.3 µM
48 | Cc1ccc(C(=O)C(C)N(C)C(=O)OCc2ccccc2)cc1 (stereo not drawn) [Compound 30, Benzyl methyl(1-oxo-1-(p-tolyl)propan-2-yl)carbamate] | 40.06 ± 0.01 µM
49 | CCC(C(=O)c1ccccc1)N(C)C(=O)Oc1ccccc1 (stereo not drawn) [Compound 12, Phenyl methyl(1-oxo-1-phenylbutan-2-yl)carbamate] | 179 ± 6.21 µM
50 | COC(=O)N(C)C(C)C(=O)c1ccc(OC)cc1 (stereo not drawn) [Compound 6, Methyl (1-(4-methoxyphenyl)-1-oxopropan-2-yl)(methyl)carbamate] | 147 ± 1.51 µM
51 | CCC(C(=O)c1ccccc1)N(C)C(=O)OCc1ccccc1 (stereo not drawn) [Compound 24, Benzyl methyl(1-oxo-1-phenylbutan-2-yl)carbamate] | 104 ± 2.91 µM
52 | CC(C(=O)c1ccc(Cl)cc1)N(C)C(=O)OCc1ccccc1 (stereo not drawn) [Compound 31, Benzyl (1-(4-chlroophenyl)-1-oxopropan-2-yl)(methyl)carbamate] | 52.83 ± 0.34 µM
53 | CC(C(=O)c1ccc(Cl)cc1)N(C)C(=O)Oc1ccccc1 (stereo not drawn) [Compound 19, Phenyl (1-(4-chlorophenyl)-1-oxopropan-2-yl)(methyl)carbamate] | 44.2 ± 2.35 µM
54 | CC(C(=O)c1cccc(Cl)c1)N(C)C(=O)Oc1ccccc1 (stereo not drawn) [Compound 16, Phenyl (1-(3-chlorophenyl)-1-oxopropan-2-yl)(methyl)carbamate] | 109 ± 1.1 µM
55 | CCN(C(=O)OCc1ccccc1)C(C)C(=O)c1ccccc1 (stereo not drawn) [Compound 23, Benzyl ethyl(1-oxo-1-phenylpropan-2-yl)carbamate] | 158.4 ± 0.87 µM
56 | CCCC(C(=O)c1ccccc1)N(C)C(=O)OCc1ccccc1 (stereo not drawn) [Compound 26, Benzyl methyl(1-oxo-1-phenylpentan-2-yl)carbamate] | 134.7 ± 0.7 µM
57 | CC(C(=O)c1ccc(Br)c2ccccc12)N(C)C(=O)OCc1ccccc1 (stereo not drawn) [Compound 41, Benzyl (1-(4-bromonaphthalen-1-yl)-1-oxopropan-2-yl)(methyl)carbamate] | 128.3 ± 0.88 µM

From article PMC6479915, “Novel Benzene-Based Carbamates for AChE/BChE Inhibition: Synthesis and Ligand/Structure-Oriented SAR Study” (International Journal of Molecular Sciences, 2019)
